Data taken from patent US10456394B2, “Tetrahydroquinoline substituted hydroxamic acids as selective histone deacetylase 6 inhibitors” (THE BOARD OF TRUSTEES OF THE UNIVERSITY OF ILLINOIS, priority 2016, dated 2019).

What was measured:
Human HDAC1 = Human HDAC1 (Homo sapiens (Human), UniProt Q13547); assay: HDAC enzyme activity inhibition assay, HDAC1; assay type: biochemical; conditions: Table 1; mean of two experiments ± standard deviation; 10-point assay from 30 μM, 3-fold serial dilution
Human HDAC6 = Human HDAC6 (Homo sapiens (Human), UniProt Q9UBN7); assay: HDAC enzyme activity inhibition assay, HDAC6; assay type: biochemical; conditions: Table 1; for IC50: mean of two experiments ± standard deviation, 10-point assay from 30 μM, 3-fold serial dilution; for Selectivity HDAC1/HDAC6: ratio of IC50 values
Human HDAC6, sequence (Q9UBN7 whole entry): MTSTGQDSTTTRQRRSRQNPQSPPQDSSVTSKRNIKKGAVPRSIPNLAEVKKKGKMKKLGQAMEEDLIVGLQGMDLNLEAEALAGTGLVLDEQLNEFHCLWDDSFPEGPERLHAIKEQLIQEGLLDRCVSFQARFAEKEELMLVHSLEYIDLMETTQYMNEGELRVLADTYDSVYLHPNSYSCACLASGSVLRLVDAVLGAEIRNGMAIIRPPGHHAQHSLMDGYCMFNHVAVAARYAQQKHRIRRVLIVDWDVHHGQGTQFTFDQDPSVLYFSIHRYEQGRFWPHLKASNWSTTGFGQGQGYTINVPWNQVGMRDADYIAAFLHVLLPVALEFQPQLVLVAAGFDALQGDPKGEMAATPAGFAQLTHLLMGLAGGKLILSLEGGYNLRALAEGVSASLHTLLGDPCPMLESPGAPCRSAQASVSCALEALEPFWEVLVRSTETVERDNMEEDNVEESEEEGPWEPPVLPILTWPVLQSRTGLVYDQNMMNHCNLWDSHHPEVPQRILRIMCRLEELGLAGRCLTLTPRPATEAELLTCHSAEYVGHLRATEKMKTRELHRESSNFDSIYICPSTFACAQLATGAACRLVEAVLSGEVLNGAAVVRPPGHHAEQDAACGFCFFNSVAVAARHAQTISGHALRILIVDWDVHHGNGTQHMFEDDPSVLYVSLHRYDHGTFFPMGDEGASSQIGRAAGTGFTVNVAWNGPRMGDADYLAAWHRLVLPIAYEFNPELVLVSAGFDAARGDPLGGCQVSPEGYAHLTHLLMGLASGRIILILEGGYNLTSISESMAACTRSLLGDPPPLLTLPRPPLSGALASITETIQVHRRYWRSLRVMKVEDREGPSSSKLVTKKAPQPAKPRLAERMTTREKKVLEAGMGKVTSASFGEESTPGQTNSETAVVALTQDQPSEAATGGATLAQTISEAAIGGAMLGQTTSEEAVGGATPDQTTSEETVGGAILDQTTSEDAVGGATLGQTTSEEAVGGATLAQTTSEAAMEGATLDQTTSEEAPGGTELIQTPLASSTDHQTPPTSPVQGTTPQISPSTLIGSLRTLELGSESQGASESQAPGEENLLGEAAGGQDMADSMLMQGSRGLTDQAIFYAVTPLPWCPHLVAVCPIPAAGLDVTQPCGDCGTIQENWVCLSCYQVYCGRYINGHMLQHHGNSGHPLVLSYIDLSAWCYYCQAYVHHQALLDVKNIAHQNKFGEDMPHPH

traumatic brain injury = conditions: following traumatic brain injury in rats; cited from earlier work
mice with colitis = conditions: treatment begun once colitis had developed; cited from earlier work
[1] = system: symptomatic mutant HSPB1 mice; conditions: cited from earlier work
HDAC4 = HDAC4 (Homo sapiens (Human), UniProt P56524); assay: HDAC enzyme activity inhibition assay, HDAC4; assay type: biochemical; conditions: Table 2; mean of two experiments
GBM6 cells = assay: Growth inhibition of glioblastoma cell line GBM6; assay type: cell-based; conditions: FIG. 4
HDAC2 = HDAC2 (Homo sapiens (Human), UniProt Q92769); assay: HDAC enzyme activity inhibition assay, HDAC2; assay type: biochemical; conditions: Table 2; mean of two experiments
cardiac fibroblasts = assay: Tubulin acetylation in adult rat cardiac fibroblasts; assay type: cell-based; conditions: in comparison to the DMSO control (FIG. 2)
Procedure: The ability of the inhibitor to induce tubulin acetylation in cardiac fibroblasts was also determined and western blot is shown below.

HDAC11 = HDAC11 (Homo sapiens (Human), UniProt Q96DB2); assay: HDAC enzyme activity inhibition assay, HDAC11; assay type: biochemical; conditions: Table 2; mean of two experiments
HDAC11, sequence (Q96DB2 whole entry): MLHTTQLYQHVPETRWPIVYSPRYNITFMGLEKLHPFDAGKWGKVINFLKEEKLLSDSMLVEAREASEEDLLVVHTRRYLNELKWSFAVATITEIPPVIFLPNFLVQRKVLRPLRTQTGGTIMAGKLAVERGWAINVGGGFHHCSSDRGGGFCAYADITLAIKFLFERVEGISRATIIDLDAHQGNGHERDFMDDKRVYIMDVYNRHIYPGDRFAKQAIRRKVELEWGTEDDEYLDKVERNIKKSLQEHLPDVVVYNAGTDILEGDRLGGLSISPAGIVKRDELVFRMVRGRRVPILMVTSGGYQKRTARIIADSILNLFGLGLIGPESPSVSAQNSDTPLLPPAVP

HDAC5 = HDAC5 (Homo sapiens (Human), UniProt Q9UQL6); assay: HDAC enzyme activity inhibition assay, HDAC5; assay type: biochemical; conditions: Table 2; mean of two experiments
HDAC8 = HDAC8 (Homo sapiens (Human), UniProt Q9BY41); assay: HDAC enzyme activity inhibition assay, HDAC8; assay type: biochemical
HDAC8, sequence (Q9BY41 whole entry): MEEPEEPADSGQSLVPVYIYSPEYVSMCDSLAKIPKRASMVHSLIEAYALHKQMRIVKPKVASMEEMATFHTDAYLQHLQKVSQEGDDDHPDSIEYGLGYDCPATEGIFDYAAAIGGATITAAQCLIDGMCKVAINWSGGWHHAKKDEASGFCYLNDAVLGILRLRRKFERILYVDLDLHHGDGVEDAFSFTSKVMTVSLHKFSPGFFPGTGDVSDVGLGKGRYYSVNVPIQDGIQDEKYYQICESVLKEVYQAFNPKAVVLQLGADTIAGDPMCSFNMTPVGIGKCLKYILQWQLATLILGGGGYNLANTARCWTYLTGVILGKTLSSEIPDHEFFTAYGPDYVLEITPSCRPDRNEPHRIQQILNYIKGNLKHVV

HDAC9 = HDAC9 (Homo sapiens (Human), UniProt Q9UKV0); assay: HDAC enzyme activity inhibition assay, HDAC9; assay type: biochemical; conditions: Table 2; mean of two experiments
HDAC3/NcoR2 complex = HDAC3/NcoR2 complex (Homo sapiens (Human), UniProt O15379); assay: HDAC enzyme activity inhibition assay, HDAC3; assay type: biochemical; conditions: Table 2; mean of two experiments
HDAC3/NcoR2 complex, sequence (O15379 whole entry): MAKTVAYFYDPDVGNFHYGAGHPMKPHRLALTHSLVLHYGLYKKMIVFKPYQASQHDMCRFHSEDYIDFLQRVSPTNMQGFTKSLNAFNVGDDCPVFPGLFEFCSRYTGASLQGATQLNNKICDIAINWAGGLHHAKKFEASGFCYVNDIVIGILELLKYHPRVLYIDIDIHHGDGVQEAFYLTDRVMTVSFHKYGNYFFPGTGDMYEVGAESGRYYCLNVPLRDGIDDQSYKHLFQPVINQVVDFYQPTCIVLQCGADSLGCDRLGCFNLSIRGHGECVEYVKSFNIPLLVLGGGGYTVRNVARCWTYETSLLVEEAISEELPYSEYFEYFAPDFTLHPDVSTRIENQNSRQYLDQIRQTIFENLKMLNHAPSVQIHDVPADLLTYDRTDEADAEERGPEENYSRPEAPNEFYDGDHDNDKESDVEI
HDAC3/NcoR2 complex, sequence (Q9Y618 395-489 partner): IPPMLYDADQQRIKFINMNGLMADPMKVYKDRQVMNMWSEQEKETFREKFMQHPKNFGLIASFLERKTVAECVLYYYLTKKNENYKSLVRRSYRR

HDAC10 = HDAC10 (Homo sapiens (Human), UniProt Q969S8); assay: HDAC enzyme activity inhibition assay, HDAC10; assay type: biochemical; conditions: Table 2; mean of two experiments
HDAC10, sequence (Q969S8 whole entry): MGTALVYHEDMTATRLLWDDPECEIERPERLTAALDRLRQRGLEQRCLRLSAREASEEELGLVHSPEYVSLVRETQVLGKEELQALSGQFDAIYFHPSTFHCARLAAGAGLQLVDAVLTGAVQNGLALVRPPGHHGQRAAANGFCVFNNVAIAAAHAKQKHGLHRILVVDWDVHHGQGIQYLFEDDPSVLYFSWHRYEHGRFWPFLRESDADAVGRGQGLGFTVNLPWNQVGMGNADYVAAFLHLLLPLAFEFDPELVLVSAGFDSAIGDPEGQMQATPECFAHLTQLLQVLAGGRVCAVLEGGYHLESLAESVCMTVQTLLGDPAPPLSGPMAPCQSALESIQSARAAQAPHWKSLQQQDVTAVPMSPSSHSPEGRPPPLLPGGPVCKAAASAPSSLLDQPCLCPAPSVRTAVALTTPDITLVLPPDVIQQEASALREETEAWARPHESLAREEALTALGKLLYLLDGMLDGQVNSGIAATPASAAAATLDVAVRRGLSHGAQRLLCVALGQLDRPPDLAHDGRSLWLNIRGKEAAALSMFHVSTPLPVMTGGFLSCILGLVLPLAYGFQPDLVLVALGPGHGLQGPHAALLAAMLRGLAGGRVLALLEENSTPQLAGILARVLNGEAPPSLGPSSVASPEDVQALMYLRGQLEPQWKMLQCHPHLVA

HDAC7 = HDAC7 (Homo sapiens (Human), UniProt Q8WUI4); assay: biochemical
HDAC7, sequence (Q8WUI4 whole entry): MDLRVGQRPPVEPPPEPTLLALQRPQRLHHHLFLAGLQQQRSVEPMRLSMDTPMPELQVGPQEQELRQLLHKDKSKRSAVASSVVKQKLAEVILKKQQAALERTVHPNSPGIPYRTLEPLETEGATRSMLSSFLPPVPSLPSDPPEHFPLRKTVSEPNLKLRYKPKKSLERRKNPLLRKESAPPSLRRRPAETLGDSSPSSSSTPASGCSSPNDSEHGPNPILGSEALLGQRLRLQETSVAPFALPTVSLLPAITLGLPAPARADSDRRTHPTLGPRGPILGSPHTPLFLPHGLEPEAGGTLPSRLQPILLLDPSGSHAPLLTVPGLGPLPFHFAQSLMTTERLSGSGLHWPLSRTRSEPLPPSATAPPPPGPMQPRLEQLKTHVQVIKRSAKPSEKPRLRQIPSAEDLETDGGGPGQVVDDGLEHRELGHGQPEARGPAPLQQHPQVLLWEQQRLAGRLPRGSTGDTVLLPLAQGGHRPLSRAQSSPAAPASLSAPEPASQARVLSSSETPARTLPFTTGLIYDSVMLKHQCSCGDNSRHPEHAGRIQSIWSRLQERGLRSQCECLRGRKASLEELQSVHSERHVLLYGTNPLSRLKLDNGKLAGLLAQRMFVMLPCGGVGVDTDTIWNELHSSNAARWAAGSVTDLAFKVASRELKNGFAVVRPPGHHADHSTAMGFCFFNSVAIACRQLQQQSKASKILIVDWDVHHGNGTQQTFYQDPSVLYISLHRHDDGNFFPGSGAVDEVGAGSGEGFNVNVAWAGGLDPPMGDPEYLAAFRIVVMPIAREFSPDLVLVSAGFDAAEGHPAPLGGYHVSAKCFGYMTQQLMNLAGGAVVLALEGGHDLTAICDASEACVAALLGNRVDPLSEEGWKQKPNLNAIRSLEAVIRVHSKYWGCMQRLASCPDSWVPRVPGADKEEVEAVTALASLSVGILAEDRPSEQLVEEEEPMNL

Human HDAC1, sequence (Q13547 whole entry): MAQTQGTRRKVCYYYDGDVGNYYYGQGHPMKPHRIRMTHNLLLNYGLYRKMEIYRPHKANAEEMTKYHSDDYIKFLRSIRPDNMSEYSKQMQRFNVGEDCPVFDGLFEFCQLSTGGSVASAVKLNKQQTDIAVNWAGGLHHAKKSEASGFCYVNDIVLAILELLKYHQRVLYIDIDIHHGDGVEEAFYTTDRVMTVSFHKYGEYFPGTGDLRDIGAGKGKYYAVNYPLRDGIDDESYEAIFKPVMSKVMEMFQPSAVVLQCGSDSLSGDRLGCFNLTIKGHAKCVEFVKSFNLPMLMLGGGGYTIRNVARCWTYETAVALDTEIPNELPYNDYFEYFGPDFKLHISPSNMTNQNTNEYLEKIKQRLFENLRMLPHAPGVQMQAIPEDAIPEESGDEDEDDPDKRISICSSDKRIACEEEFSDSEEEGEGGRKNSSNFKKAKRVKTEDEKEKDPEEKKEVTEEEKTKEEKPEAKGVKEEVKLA

IC50 (Human HDAC1) [nM]	IC50 (Human HDAC6) [nM]	Selectivity HDAC1/HDAC6 (Human HDAC6)	SMILES	other results
8430 ± 30	382 ± 20.5	22	CC(c1ccc(C(=O)NO)cc1)N1CCCc2cc(Cl)ccc21 (centres unmarked) [Example 4, 4-(1-(6-chloro-3,4-dihydroquinolin-1(2H)-yl)ethyl)-N-hydroxybenzamide]	–
21100 ± 800	45.1 ± 0.05	468	CC1(C)CCN(Cc2ccc(C(=O)NO)cc2)c2ccc(F)cc21 [Example 13, 4-((6-fluoro-4,4-dimethyl-3,4-dihydroquinolin-1(2H)-yl)methyl)-N-hydroxybenzamide]	–
–	–	–	CN(C)c1ccc(C(=O)NCCCCCNC(=O)CS)cc1 [DMA-PB, 4-dimethylamino-N-[5-(2-mercaptoacetylamino)pentyl]benzamide]	histone H3 acetylation and microglia inflammatory response (traumatic brain injury): increase histone H3 acetylation and reduce microglia inflammatory response
14100 ± 1900	161 ± 3	88	CC1(C)CCc2cc(F)ccc2N1Cc1ccc(C(=O)NO)cc1 [Example 10, 4-((6-fluoro-2,2-dimethyl-3,4-dihydroquinolin-1(2H)-yl)methyl)-N-hydroxybenzamide]	–
3220 ± 85	4.8 ± 0.78	670	O=C(NO)c1ccc(CN2CCCc3cc(Cl)c(F)cc32)cc1 [Example 8, 4-((6-chloro-7-fluoro-3,4-dihydroquinolin-1(2H)-yl)methyl)-N-hydroxybenzamide]	–
2600 ± 30	2 ± 0.1	1300	O=C(NO)c1ccc(CN2CC[S+]([O-])c3ccccc32)cc1 (centres unmarked) [Example 17, N-hydroxy-4-((1-oxido-2,3-dihydro-4H-benzo[b][1,4]thiazin-4-yl)methyl)benzamide]	–
–	–	–	O=C(CCCCCCC(=O)Nc1ccc([C@H]2O[C@@H](CSc3nc(-c4ccccc4)c(-c4ccccc4)o3)C[C@@H](c3ccc(CO)cc3)O2)cc1)NO [tubacin]	rescue of mice with colitis (mice with colitis): able to rescue mice
6690 ± 270	39.3 ± 0.3	170	O=C(NO)c1ccc(CN2CCN(CC3CC3)c3ccccc32)cc1 [Example 15, 4-((4-(cyclopropylmethyl)-3,4-dihydroquinoxalin-1(2H)-yl)methyl)-N-hydroxybenzamide]	–
1865 ± 5	3.43 ± 0.27	544	O=C(NO)c1ccc(CN2CCCc3cc(F)c(Cl)cc32)cc1 [Example 7, 4-((7-chloro-6-fluoro-3,4-dihydroquinolin-1(2H)-yl)methyl)-N-hydroxybenzamide]	–
21200 ± 1150	12.4 ± 5.5	1706	O=C(NO)c1ccc(CN2CCCc3cc(Cl)ccc32)c(F)c1 [Example 3, 4-((6-chloro-3,4-dihydroquinolin-1(2H)-yl)methyl)-3-fluoro-N-hydroxybenzamide]	–
–	–	–	CN1CCc2c(c3ccccc3n2Cc2ccc(C(=O)NO)cc2)C1 [Tubastatin A]	axonal transport defects and CMT phenotype [1]: corrects the axonal transport defects induced by HSPB1 mutations and rescues the CMT phenotype
11100	14.6	760	O=C(NO)c1ccc(CN2CCCc3ccccc32)cc1 [Example 1, 4-((3,4-dihydroquinolin-1(2H)-yl)methyl)-N-hydroxybenzamide]	–
–	–	–	O=C(NO)c1ccc(CN2CCCc3cc(Cl)ccc32)cc1 [Example 2, 4-((6-chloro-3,4-dihydroquinolin-1(2H)-yl)methyl)-N-hydroxybenzamide]	IC50 (HDAC4): 11000 nM; growth of glioblastoma cell line (GBM6) (GBM6 cells): inhibit the growth; IC50 (HDAC2): > 30000 nM; tubulin acetylation (cardiac fibroblasts): robust tubulin acetylation; IC50 (HDAC11): 746 nM; IC50 (HDAC5): 4550 nM; IC50 (HDAC8): 3340 nM; IC50 (HDAC9): 3460 nM; IC50 (HDAC3/NcoR2 complex): > 30000 nM; IC50 (HDAC10): > 30000 nM; IC50 (HDAC7): 4060 nM
22000 ± 1550	33.6 ± 1.9	653	CC(C)(C)OC(=O)N1CC(=O)N(Cc2ccc(C(=O)NO)cc2)c2ccccc21 [Example 18, tert-butyl 4-(4-(hydroxycarbamoyl)benzyl)-3-oxo-3,4-dihydroquinoxaline-1(2H)-carboxylate]	–

SMILES	IC50 (Human HDAC1) [nM]	IC50 (Human HDAC6) [nM]	Selectivity HDAC1/HDAC6 (Human HDAC6)	other results
CC1(C)CC(=O)N(Cc2ccc(C(=O)NO)cc2)c2ccc(Cl)cc21 [Example 11, 4-((6-chloro-4,4-dimethyl-2-oxo-3,4-dihydroquinolin-1(2H)-yl)methyl)-N-hydroxybenzamide]	6500 ± 230	28.9 ± 1.1	225	–
O=C(NO)c1ccc(Cn2c(=O)cnc3ccccc32)cc1 [Example 19, N-hydroxy-4-((2-oxoquinoxalin-1(2H)-yl)methyl)benzamide]	1045 ± 5	1.2 ± 0.3	870	–
O=C(NO)c1ccc(CN2CCNc3ccccc32)cc1 [Example 14, 4-((3,4-dihydroquinoxalin-1(2H)-yl)methyl)-N-hydroxybenzamide]	8750 ± 1070	2.9 ± 0.4	3017	–
O=C(NO)c1ccc(CN2CCSc3ccccc32)cc1 [Example 16, 4-((2,3-dihydro-4H-benzo[b][1,4]thiazin-4-yl)methyl)-N-hydroxybenzamide]	7935 ± 25	6.1 ± 0.1	1300	–
O=C(NO)c1ccc(CN2CCCc3cc(F)ccc32)cc1 [Example 5, 4-((6-fluoro-3,4-dihydroquinolin-1(2H)-yl)methyl)-N-hydroxybenzamide]	5235 ± 45	5.05 ± 0.23	1037	–
CC1(C)CCN(Cc2ccc(C(=O)NO)cc2)c2ccc(Cl)cc21 [Example 12, 4-((6-chloro-4,4-dimethyl-3,4-dihydroquinolin-1(2H)-yl)methyl)-N-hydroxybenzamide]	19500 ± 700	37.8 ± 4.8	516	–
O=C(NO)c1ccc(CN2CCCc3cc(Cl)c(Cl)cc32)cc1 [Example 6, 4-((6,7-dichloro-3,4-dihydroquinolin-1(2H)-yl)methyl)-N-hydroxybenzamide]	2620 ± 115	3.59 ± 0.1	728	–
CC1(C)CCc2cc(Cl)ccc2N1Cc1ccc(C(=O)NO)cc1 [Example 9, 4-((6-chloro-2,2-dimethyl-3,4-dihydroquinolin-1(2H)-yl)methyl)-N-hydroxybenzamide]	19600 ± 2450	328 ± 15.5	60	–
